Test results taken from patent publication US11098238B2, “Tracer and method” (JOHNSON MATTHEY PUBLIC LIMITED COMPANY, priority 2016, dated 2021).

Columns and labels:
[1] = log Kow (octanol/water partition coefficient); assay type: physicochemical; details: for Log Kow: base-10 logarithm of ratio of equilibrium concentrations in octanol and water
Excerpt: Preferably the system is an oil reservoir and the property is the residual oil saturation. Thus, preferably the use is of a partitioning tracer for determining residual oil saturation, the partitioning tracer comprising a sulfone compound having a log Kow value in the range −0.5 to 3. Preferably the log Kow value is in the range 0.5 to 1.5. Those ranges may give optimum partitioning into the oil in the formation. If the log Kow value is too high, the partitioning tracer will spend too long in the oil and will not be released from the well in a reasonable time, or even at all. If the log Kow value is too low, the partitioning tracer will largely remain in the water phase and there will not be a sufficient differential between the release of the conservative and partitioning tracers. The log Kow value is the base-10 logarithm of the ratio of the equilibrium concentrations of the tracer in octanol and water and can be determined for example, by the method described in “Experimental Aspects of Partitioning Tracer Tests for Residual Oil Saturation Determination with FIA-based Laboratory Equipment, SPE Reservoir Engineering, May 1990, pages 239-244”.
The log Kow values are either experimentally determined or estimated using KOWWIN v1.68.

Log Kow [1] | log Kow value [1] | SMILES | Vapour Pressure (Vapour pressure) [mm Hg]
1.72 | – | OCc1ccc(Cl)cc1 [4-Chlorobenzyl alcohol, 4-chlorobenzyl alcohol] | 0.00268
1.21 | – | CS(=O)(=O)c1ccc(Cl)cc1 [4-Chlorophenyl methyl sulfone, 4-chlorophenyl methyl sulfone] | –
– | −1.11 | CS(C)(=O)=O [dimethylsulfone] | –

SMILES | Log Kow [1] | log Kow value [1] | Vapour Pressure (Vapour pressure) [mm Hg]
OC(C(F)(F)F)C(F)(F)F [1,1,1,3,3,3-Hexafluoro-2-propanol, 1,1,1,3,3,3-hexafluoro-2-propanol] | 1.66 | – | 156
